Consider three compounds from patent US20260174778A1, “SULFONAMIDE COMPOUND, AND PREPARATION METHOD THEREFOR AND USE THEREOF” (SHANGHAI HENLIUS BIOTECH, INC., priority 2023, published 2026).

The subject of this data set is human breast cancer ZR-75-1 cell xenograft tumor. Kind of data set: Anti-tumor effect in ER+KAT6high breast cancer cell xenograft tumor model (Test Example 5). As to conditions: for T/C / TGI / mean tumor volume: day 35; for body weight changes compared to the PF-8144 group: all doses (0.01, 0.1, 2 mg/kg). The class given is in vivo, Balb/c nude mice. Here is the method: Test Example 5: Anti-Tumor Effects of Test Compounds in ER^+KAT6^high Breast Cancer Cell-Xenograft Tumor Model
Assay method: ZR-75-1 cells were subcutaneously inoculated into the right back of each mouse to evaluate the efficacy of the compounds in the subcutaneous xenograft tumor model of ZR-75-1 cells.
• 1. Cell culture: ZR-75-1 cells were cultured as a monolayer in vitro under the following culture conditions: an RPMI 1640 medium supplemented with 10% fetal bovine serum and 1% Anti-anti (Antibiotic-Antimycotic), incubated in an incubator at 37° C. with 5% CO2. The cells were digested with trypsin-EDTA twice a week for passaging as per conventional practice. When the cell saturation reached 80%-90% and the quantity met the requirement, the cells were harvested, counted, and inoculated. • 2. Animals: Balb/c nude mice, female, 6-8 weeks old, weighing 18-22 g. A total of 128 mice were required (80 mice were enrolled). They were provided by Vital River. • 3. Tumor inoculation: Two days before tumor inoculation, 17-beta estradiol tablets (0.18 mg) were subcutaneously administered, and 10 million ZR-75-1 tumor cells+matrigel (total […]) were subcutaneously inoculated into the right back of each mouse. When the mean tumor volume reached about 137 mm^3, the mice were grouped for administration. • 4. Experimental administration: The compounds were dissolved in 5% DMSO+5% Tween 80+90% Saline, and administered intragastrically (PO) daily for five weeks. • 5. Experimental indicators: The experimental indicators were to investigate whether the tumor growth was inhibited or delayed or the tumor was cured. Tumor diameters were measured twice weekly using a vernier caliper. The tumor volume was calculated using the following formula: V=0.5a×b^2, where a and b represent the long diameter and short diameter of the tumor, respectively. • 6. The anti-tumor efficacy of the compounds was evaluated by TGI (%) or relative tumor proliferation rate T/C (%). TGI (%) refers to the tumor growth inhibition rate. Calculation of TGI (%):TGI (%)=[(1−(mean tumor volume at the end of administration in a treatment group—mean tumor volume at the start of administration in the treatment group))/(mean tumor volume at the end of treatment in the solvent control group—mean tumor volume at the start of treatment in the solvent control group)]×100%. The calculation formula for the relative tumor proliferation rate T/C (%) was as follows: T/C %=TRTV/CRTV×100% (TRTV:RTV of the treatment group; CRTV:RTV of the negative control group). The relative tumor volume (RTV) was calculated based on the tumor measurement results using the following formula: RTV=Vt/V0, where V0 represents the mean tumor volume measured at the time of grouping for administration (i.e., PG-D0), and Vt represents the mean tumor volume at a certain measurement. TRTV and CRTV were derived from data measured on the same day.
The mean and standard error of mean (SEM) of tumor volume at each time point for each group were included. The differences in tumor volume and tumor weight among the groups were statistically analyzed. For comparisons among three or more groups, one-way ANOVA was used for analysis. […] The analysis was performed using SPSS 17.0, and p<0.05 was considered to indicate a significant difference.
For comparisons between different doses of the same drug or different drugs at the same dose, two-way ANOVA was used for analysis, and the Bonferroni method was applied for testing. The analysis was performed using GraphPad Prism 9.0, and p<0.05 was considered to indicate a significant difference. On day 35 after the start of administration, the data between different doses of the same drug or different drugs at the same dose were analyzed using one-way ANOVA. […] The analysis was performed using SPSS 17.0, and p<0.05 was considered to indicate a significant difference.

Consider `COc1ccccc1S(=O)(=O)Nc1noc2cc(Cn3cccn3)cc(OC)c12` [PF-8144, reference compound], for which, for the setting “0.01 mg/kg PO QD”, the T/C is reported as 72.71%, the TGI was 30.19% and the mean tumor volume is on record as 1,035 mm^3. In addition, under “0.1 mg/kg PO QD”, the T/C came to 40.77%, the TGI is listed as 65.53% and the mean tumor volume came out at 580 mm^3. Also, under “2 mg/kg PO QD”, the T/C is given as 2.51%, the TGI is recorded as 107.85% and the mean tumor volume stood at 36 mm^3.

With `COc1ccc2c(c1S(=O)(=O)Nc1noc3cc(Cn4cccn4)c(F)c(OC)c13)OCCO2` [Compound 28, N-(6-((1H-Pyrazol-1-yl)methyl)-5-fluoro-4-methoxybenzo[d]isoxazol-3-yl)-6-methoxy-2,3-dihydrobenzo[b][1,4]dioxine-5-sulfonamide], the “body weight changes compared to the PF-8144 group” value is “no statistically significant difference”. Also, where the note is “0.01 mg/kg PO QD”, the T/C was determined as 76.14%, the TGI turned out to be 30.94% and the mean tumor volume is listed as 1,017 mm^3. For the same compound, for the setting “0.1 mg/kg PO QD”, the “efficacy compared to PF-8144” value was “significantly superior in efficacy to PF-8144”, the T/C is 11.36%, the TGI worked out at 98.07% and the mean tumor volume is 162 mm^3. Further, for the setting “2 mg/kg PO QD”, the T/C turned out to be 0.84%, the TGI stood at 109.69% and the mean tumor volume was 12 mm^3.

On to `COc1ccc2c(c1S(=O)(=O)Nc1noc3cc(Cn4cccn4)c(F)c(OC)c13)OCC=C2` [Compound 101, N-(6-((1H-Pyrazol-1-yl)methyl)-5-fluoro-4-methoxybenzo[d]isoxazol-3-yl)-7-methoxy-2H-chromene-8-sulfonamide], for which the “body weight changes compared to the PF-8144 group” value is recorded as “no statistically significant difference”. Also, for the setting “0.01 mg/kg PO QD”, the T/C is 19.06%, the TGI is recorded as 89.81% and the mean tumor volume is 264 mm^3. For the setting “0.1 mg/kg PO QD”, the “efficacy compared to PF-8144” value is “significantly superior in efficacy to PF-8144”, the T/C came out at 1.79%, the TGI is given as 108.64% and the mean tumor volume is listed as 25 mm^3. For the setting “2 mg/kg PO QD”, the T/C was 0.96%, the TGI is 109.56% and the mean tumor volume is reported as 14 mm^3.

What is called T/C is the result in the treated group divided by that in the control group, in per cent.
